Experimental data from patent US20260232662A1, “MIR-124 INDUCER, AND PREPARATION METHOD THEREFOR AND USE THEREOF” (NANJING SYNNOCARE PHARMACEUTICAL TECHNOLOGY CO., LTD., priority 2023, published 2026).

Tested on: miR-124
Test: Induction of miR-124 expression in PBMC cells (qPCR)
Assay type: cell-based
Details: Homo sapiens, 72 h, 0.1 μM compound, human PBMCs stimulated with PMA/ionomycin, miR-191 reference gene, read-out: miR-124 expression, Fold change vs DMSO
Procedure: This study evaluated the ability of the compound of the present invention to influence miR-124 transcriptional activity in vitro. The experiment analyzed miR-124 expression in human PBMCs (Sailybio) using quantitative PCR (qPCR).
Thawed human PBMCs (1 mL) were added to 19 mL of culture medium (RPMI1640+10% hFBS+1‰ 2-mercaptoethanol) and the PBMCs were incubated in a cell culture incubator for 30 minutes. The PBMCs were collected and the cells (3.0*10^6 cells/well/3 mL) were resuspended in medium containing PMA (10 ng/mL; Invivogen) and ionomycin (200 ng/mL; Invivogen). The cells were incubated in a 6-well plate for 48 hours. Diluted compound was added to the cells to achieve a final concentration of 0.1 μM. After 72 hours, the samples were centrifuged and the cells were collected.
Total miRNA was extracted from the cells using the MiPure Cell/Tissue miRNA Kit (Vazyme) according to the manufacturer's instructions, followed by purification. The purified samples were treated with genomic DNA elimination buffer, and reverse transcription was performed using a GeneAmp PCR System. The resulting cDNA was subjected to quantitative real-time PCR (qPCR) analysis on a QuantStudio™ 7 Flex Real-Time PCR System. Data analysis was performed using the QuantStudio 7 software with default settings to automatically determine Ct values, and the results were exported. In this assay, miR-191 was used as the reference gene, and the DMSO-treated group served as the control. The relative expression of miR-124 was calculated using the following formula: […]

SMILES: Fc1cc(Nc2nc3cc(Cl)cc(Cl)c3n3ccnc23)ccc1OC(F)(F)F [Compound B94, 7,9-dichloro-N-(3-fluoro-4-(trifluoromethoxy)phenyl) imidazolo[1,2-a] quinoxalin-4-amine]
- fold induction at 0.1 µM: 26.4

SMILES: FC(F)(F)Oc1ccc(Nc2nc3cc(Cl)cc(Cl)c3n3ccnc23)cc1Cl [Compound B95, 7,9-dichloro-N-(3-chloro-4-(trifluoromethoxy)phenyl) imidazolo[1,2-a] quinoxalin-4-amine]
- fold induction at 0.1 µM: 24.8

SMILES: FC(F)(F)c1ccc(Nc2nc3cc(Cl)cc(Cl)c3n3ccnc23)cc1 [Compound B96, 7,9-dichloro-N-(4-(trifluoromethyl)phenyl) imidazolo[1,2-a] quinoxalin-4-amine]
- fold induction at 0.1 µM: 23.2

SMILES: FC(F)(F)c1ccc(Nc2nc3cc(Cl)cc(Cl)c3n3ccnc23)cc1Cl [Compound B98, 7,9-dichloro-N-(3-chloro-4-(trifluoromethyl)phenyl) imidazolo[1,2-a] quinoxalin-4-amine]
- fold induction at 0.1 µM: 22.9

SMILES: FC(F)(F)Sc1ccc(Nc2nc3cc(Cl)cc(Cl)c3n3ccnc23)cc1 [Compound B99, 7,9-dichloro-N-(4-(trifluoromethylthio)phenyl) imidazolo[1,2-a] quinoxalin-4-amine]
- fold induction at 0.1 µM: 17.6

SMILES: FC1(F)Oc2ccc(Nc3nc4ccc(Cl)cc4n4ccnc34)cc2O1 [Compound B100, 8-chloro-N-(2,2-difluorobenzo [d][1,3]dihydroxy-5-yl) imidazolo[1,2-a] quinoxalin-4-amine]
- fold induction at 0.1 µM: 19.6

SMILES: Fc1cc(Nc2nc3ccc(Cl)cc3n3ccnc23)ccc1OC(F)(F)F [Compound B101, 8-chloro-N-(3-fluoro-4-(trifluoromethoxy)phenyl) imidazolo[1,2-a] quinoxalin-4-amine]
- fold induction at 0.1 µM: 24.7

SMILES: FC(F)(F)Oc1ccc(Nc2nc3ccc(Cl)cc3n3ccnc23)cc1Cl [Compound B102, 8-chloro-N-(3-chloro-4-(trifluoromethoxy)phenyl) imidazolo[1,2-a] quinoxalin-4-amine]
- fold induction at 0.1 µM: 27.3

SMILES: FC(F)(F)c1ccc(Nc2nc3ccc(Cl)cc3n3ccnc23)cc1 [Compound B103, 8-chloro-N-(4-(trifluoromethyl)phenyl) imidazolo[1,2-a] quinoxalin-4-amine]
- fold induction at 0.1 µM: 25.5

SMILES: Fc1cc(Nc2nc3ccc(Cl)cc3n3ccnc23)ccc1C(F)(F)F [Compound B104, 8-chloro-N-(3-fluoro-4-(trifluoromethyl)phenyl) imidazolo[1,2-a] quinoxalin-4-amine]
- fold induction at 0.1 µM: 28.1

SMILES: FC(F)(F)c1ccc(Nc2nc3ccc(Cl)cc3n3ccnc23)cc1Cl [Compound B105, 8-chloro-N-(3-chloro-4-(trifluoromethyl)phenyl) imidazolo[1,2-a] quinoxalin-4-amine]
- fold induction at 0.1 µM: 27.8

SMILES: FC1(F)Oc2ccc(Nc3nc4cc(Cl)ccc4n4ccnc34)cc2O1 [Compound B106, 7-chloro-N-(2,2-difluorobenzo[d] [1,3]dihydroxy-5-yl) imidazolo[1,2-a] quinoxalin-4-amine]
- fold induction at 0.1 µM: 16.3

SMILES: Fc1cc(Nc2nc3cc(Cl)ccc3n3ccnc23)ccc1OC(F)(F)F [Compound B107, 7-chloro-N-(3-fluoro-4-(trifluoromethoxy)phenyl) imidazolo[1,2-a] quinoxalin-4-amine]
- fold induction at 0.1 µM: 24.4

SMILES: FC(F)(F)c1ccc(Nc2nc3cc(Cl)ccc3n3ccnc23)cc1 [Compound B109, 7-chloro-N-(4-(trifluoromethyl)phenyl) imidazolo[1,2-a] quinoxalin-4-amine]
- fold induction at 0.1 µM: 26.4

SMILES: Fc1cc(Nc2nc3cc(Cl)ccc3n3ccnc23)ccc1C(F)(F)F [Compound B110, 7-chloro-N-(3-fluoro-4-(trifluoromethyl)phenyl) imidazolo[1,2-a] quinoxalin-4-amine]
- fold induction at 0.1 µM: 25.5

SMILES: FC(F)(F)c1ccc(Nc2nc3cc(Cl)ccc3n3ccnc23)cc1Cl [Compound B111, 7-chloro-N-(3-chloro-4-(trifluoromethyl)phenyl) imidazolo[1,2-a] quinoxalin-4-amine]
- fold induction at 0.1 µM: 22.5

SMILES: Fc1cc(NC2=Nc3cccc(Cl)c3N3CCN=C23)ccc1OC(F)(F)F [Compound B119, 9-chloro-N-(3-fluoro-4-(trifluoromethoxy)phenyl)-1,2-dihydroimidazo[1,2-a] quinoxalin-4-amine]
- fold induction at 0.1 µM: 25.4

SMILES: FC(F)(F)Oc1ccc(NC2=Nc3cccc(Cl)c3N3CCN=C23)cc1Cl [Compound B120, 9-chloro-N-(3-chloro-4-(trifluoromethoxy)phenyl)-1,2-dihydroimidazo[1,2-a] quinoxalin-4-amine]
- fold induction at 0.1 µM: 22.6

SMILES: Fc1cc(NC2=Nc3cccc(Cl)c3N3CCN=C23)ccc1C(F)(F)F [Compound B122, 9-chloro-N-(3-fluoro-4-(trifluoromethyl)phenyl)-1,2-dihydroimidazo[1,2-a] quinoxalin-4-amine]
- fold induction at 0.1 µM: 27.3

SMILES: FC(F)(F)c1ccc(NC2=Nc3cccc(Cl)c3N3CCN=C23)cc1Cl [Compound B123, 9-chloro-N-(3-chloro-4-(trifluoromethyl)phenyl)-1,2-dihydroimidazo[1,2-a] quinoxalin-4-amine]
- fold induction at 0.1 µM: 24.3

SMILES: Fc1cc(Cl)cc2c1N1CCN=C1C(Nc1ccc(OC(F)(F)F)cc1)=N2 [Compound B130, 7-chloro-9-fluoro-N-(4-(trifluoromethoxy)phenyl)-1,2-dihydroimidazo[1,2-a] quinoxalin-4-amine]
- fold induction at 0.1 µM: 25.6

SMILES: Fc1cc(NC2=Nc3cc(Cl)cc(F)c3N3CCN=C23)ccc1OC(F)(F)F [Compound B131, 7-chloro-9-fluoro-N-(3-fluoro-4-(trifluoromethoxy)phenyl)-1,2-dihydroimidazo[1,2-a] quinoxalin-4-amine]
- fold induction at 0.1 µM: 27

SMILES: Fc1cc(Cl)cc2c1N1CCN=C1C(Nc1ccc(OC(F)(F)F)c(Cl)c1)=N2 [Compound B132, 7-chloro-N-(3-chloro-4-(trifluoromethoxy)phenyl)-9-fluoro-1,2-dihydroimidazo[1,2-a] quinoxalin-4-amine]
- fold induction at 0.1 µM: 27.6

SMILES: Fc1cc(Cl)cc2c1N1CCN=C1C(Nc1ccc(C(F)(F)F)cc1)=N2 [Compound B133, 7-chloro-9-fluoro-N-(4-(trifluoromethyl)phenyl)-1,2-dihydroimidazo[1,2-a] quinoxalin-4-amine]
- fold induction at 0.1 µM: 26.3

SMILES: Fc1cc(NC2=Nc3cc(Cl)cc(F)c3N3CCN=C23)ccc1C(F)(F)F [Compound B134, 7-chloro-9-fluoro-N-(3-fluoro-4-(trifluoromethyl)phenyl)-1,2-dihydroimidazo[1,2-a] quinoxalin-4-amine]
- fold induction at 0.1 µM: 27.5

SMILES: Fc1cc(Cl)cc2c1N1CCN=C1C(Nc1ccc(C(F)(F)F)c(Cl)c1)=N2 [Compound B135, 7-chloro-N-(3-chloro-4-(trifluoromethyl)phenyl)-9-fluoro-1,2-dihydroimidazo[1,2-a] quinoxalin-4-amine]
- fold induction at 0.1 µM: 24.9

SMILES: FC(F)(F)Oc1ccc(NC2=Nc3cc(Cl)cc(Cl)c3N3CCN=C23)cc1 [Compound B136, 7,9-dichloro-N-(4-(trifluoromethoxy)phenyl)-1,2-dihydroimidazo[1,2-a] quinoxalin-4-amine]
- fold induction at 0.1 µM: 34.1

SMILES: Fc1cc(NC2=Nc3cc(Cl)cc(Cl)c3N3CCN=C23)ccc1OC(F)(F)F [Compound B137, 7,9-dichloro-N-(3-fluoro-4-(trifluoromethoxy)phenyl)-1,2-dihydroimidazo[1,2-a] quinoxalin-4-amine]
- fold induction at 0.1 µM: 31.1

SMILES: FC(F)(F)Oc1ccc(NC2=Nc3cc(Cl)cc(Cl)c3N3CCN=C23)cc1Cl [Compound B138, 7,9-dichloro-N-(3-chloro-4-(trifluoromethoxy)phenyl)-1,2-dihydroimidazo[1,2-a] quinoxalin-4-amine]
- fold induction at 0.1 µM: 29.9

SMILES: Fc1cc(NC2=Nc3cc(Cl)cc(Cl)c3N3CCN=C23)ccc1C(F)(F)F [Compound B140, 7,9-dichloro-N-(3-fluoro-4-(trifluoromethyl)phenyl)-1,2-dihydroimidazo[1,2-a] quinoxalin-4-amine]
- fold induction at 0.1 µM: 38.4

SMILES: FC(F)(F)c1ccc(NC2=Nc3cc(Cl)cc(Cl)c3N3CCN=C23)cc1Cl [Compound B141, 7,9-dichloro-N-(3-chloro-4-(trifluoromethyl)phenyl)-1,2-dihydroimidazo[1,2-a] quinoxalin-4-amine]
- fold induction at 0.1 µM: 36.2

SMILES: FC(F)(F)Oc1ccc(NC2=Nc3ccc(Cl)cc3N3CCN=C23)cc1 [Compound B142, 8-chloro-N-(4-(trifluoromethoxy)phenyl)-1,2-dihydroimidazo[1,2-a] quinoxalin-4-amine]
- fold induction at 0.1 µM: 25.6

SMILES: Fc1cc(NC2=Nc3ccc(Cl)cc3N3CCN=C23)ccc1OC(F)(F)F [Compound B143, 8-chloro-N-(3-fluoro-4-(trifluoromethoxy)phenyl)-1,2-dihydroimidazo[1,2-a] quinoxalin-4-amine]
- fold induction at 0.1 µM: 28.4

SMILES: FC(F)(F)Oc1ccc(NC2=Nc3ccc(Cl)cc3N3CCN=C23)cc1Cl [Compound B144, 8-chloro-N-(3-chloro-4-(trifluoromethoxy)phenyl)-1,2-dihydroimidazo[1,2-a] quinoxalin-4-amine]
- fold induction at 0.1 µM: 27.8
